# In ChEMBL document CHEMBL5247598 (Eur J Med Chem, 2022):
# Calls of active or inactive are those of the source. No cut-off for these calls is given here.
# How the values were obtained:
# NCI/ADR-RES [1] = assay: Reversal of P-gp-mediated multidrug resistance in human NCI-ADR-RES cells assessed as change in ABCB1 expression level at 1 to 10 uM incubated for 48 hrs in presence of doxorubicin by Western blot analysis; format: functional, cell-based; settings: dose 1-10 µM
# NCI/ADR-RES [2] = assay: Induction of apoptosis in human NCI-ADR-RES cells assessed as necrotic cells at 3 uM incubated for 24 hrs by Annexin V-FITC and DAPI staining based flow cytometry (Rvb= 0.55 %); format: functional
# NCI-ADR-RES [3] = assay: Inhibition of PI3K/AKT signaling pathway in human NCI-ADR-RES cells assessed as decrease in PI3K phosphorylation at 3 uM incubated for 24 to 48 hrs in presence of doxorubicin by Western blot analysis; format: cell-based; settings: time 24-48 hrs
# NCI/ADR-RES [4] = assay: Induction of apoptosis in human NCI-ADR-RES cells assessed as late apoptotic cells at 3 uM incubated for 24 hrs by Annexin V-FITC and DAPI staining based flow cytometry (Rvb= 0.66 %); format: functional
# NCI-ADR-RES [5] = assay: Inhibition of PI3K/AKT signaling pathway in human NCI-ADR-RES cells assessed as increase in cleaved PARP level at 3 uM incubated for 24 to 48 hrs in presence of doxorubicin by Western blot analysis; format: cell-based; settings: time 24-48 hrs
# NCI/ADR-RES [6] = assay: Antiproliferative activity against human multidrug resistant NCI-ADR-RES cells assessed as inhibition of cell growth at 50 uM incubated for 48 hrs by MTT assay; format: functional, cell-based
# [7] = Cytotoxicity against human HEK293T cells assessed as reduction in cell viability incubated for 48 hrs by MTT assay; format: toxicity, cell-based, HEK-293T
# NCI-ADR-RES [8] = assay: Inhibition of PI3K/AKT signaling pathway in human NCI-ADR-RES cells assessed as decrease in AKT phosphorylation at 3 uM incubated for 24 to 48 hrs in presence of doxorubicin by Western blot analysis; format: cell-based; settings: time 24-48 hrs
# NCI/ADR-RES [9] = assay: Induction of apoptosis in human NCI-ADR-RES cells assessed as early apoptotic cells at 3 uM incubated for 48 hrs by Annexin V-FITC and DAPI staining based flow cytometry (Rvb= 0.89 %); format: functional
# NCI/ADR-RES [10] = assay: Reversal fold, ratio of doxorubicin IC50 to doxorubicin IC50 in presence of 10 uM test compound for reversal of P-gp-mediated multidrug resistance in human NCI-ADR-RES cells incubated for 48 hrs by MTT assay; format: functional
# NCI/ADR-RES [11] = assay: Induction of apoptosis in human NCI-ADR-RES cells assessed as early apoptotic cells at 3 uM incubated for 24 hrs by Annexin V-FITC and DAPI staining based flow cytometry (Rvb= 0.89 %); format: functional
# NCI/ADR-RES [12] = assay: Induction of apoptosis in human NCI-ADR-RES cells assessed as early apoptotic cells at 8 uM incubated for 24 hrs in presence of doxorubicin by Annexin V-FITC and DAPI staining based flow cytometry (Rvb= 0.89 %); format: functional
# NCI-ADR-RES [13] = assay: Inhibition of PI3K/AKT signaling pathway in human NCI-ADR-RES cells assessed as increase in Caspase-3 level at 3 uM incubated for 24 to 48 hrs in presence of doxorubicin by Western blot analysis; format: cell-based; settings: time 24-48 hrs
# NCI/ADR-RES [14] = assay: Induction of apoptosis in human NCI-ADR-RES cells assessed as late apoptotic cells at 8 uM incubated for 24 hrs in presence of doxorubicin by Annexin V-FITC and DAPI staining based flow cytometry (Rvb= 0.66 %); format: functional
# NCI/ADR-RES [15] = assay: Antiproliferative activity against human multidrug resistant NCI-ADR-RES cells overexpressing P-gp assessed as reduction in cell viability incubated for 48 hrs by MTT assay; format: functional, cell-based
# NCI/ADR-RES [16] = assay: Induction of apoptosis in human NCI-ADR-RES cells assessed as late apoptotic cells at 3 uM incubated for 48 hrs by Annexin V-FITC and DAPI staining based flow cytometry (Rvb= 0.66 %); format: functional
# NCI/ADR-RES [17] = assay: Reversal of P-gp-mediated multidrug resistance in human NCI-ADR-RES cells assessed as change in ABCB1 expression level at 1 to 10 uM incubated for 24 hrs by Western blot analysis; format: functional, cell-based; settings: dose 1-10 µM
# NCI/ADR-RES [18] = assay: Induction of apoptosis in human NCI-ADR-RES cells assessed as viable cells at 3 uM incubated for 48 hrs by Annexin V-FITC and DAPI staining based flow cytometry (Rvb= 97.9 %); format: functional; settings: read-out: Activity
# NCI/ADR-RES [19] = assay: Reversal of P-gp-mediated multidrug resistance in human NCI-ADR-RES cells assessed as change in ABCB1 expression level at 1 to 10 uM incubated for 48 hrs by Western blot analysis; format: functional, cell-based; settings: dose 1-10 µM
# NCI/ADR-RES [20] = assay: Induction of apoptosis in human NCI-ADR-RES cells assessed as viable cells at 8 uM incubated for 48 hrs in presence of doxorubicin by Annexin V-FITC and DAPI staining based flow cytometry (Rvb= 97.9 %); format: functional; settings: read-out: Activity
# HEK-293T = assay: Cytotoxicity against human HEK293T cells assessed as cell survival rate at 10 uM incubated for 48 hrs by MTT assay; format: toxicity, cell-based
# NCI/ADR-RES [21] = assay: Induction of apoptosis in human NCI-ADR-RES cells assessed as late apoptotic cells at 8 uM incubated for 48 hrs in presence of doxorubicin by Annexin V-FITC and DAPI staining based flow cytometry (Rvb= 0.66 %); format: functional
# [22] = Cytotoxicity against mouse MPC-5 cells assessed as inhibition of cell growth at 50 uM incubated for 48 hrs by MTT assay; format: toxicity, cell-based; settings: mpc-5, 48 h
# [23] = target: ATP-dependent translocase ABCB1 (Homo sapiens, UniProt P08183); assay: Effect on P-gp (unknown origin) ATPase activity assessed as increased ATP consumption using Mg-ATP as substrate preincubated for 5 min followed by Mg-ATP addition and measured after 40 mins by P-gp Glo luminescence assay
# P-gp = assay: Therapeutic index, ratio of IC50 for cytotoxicity against human HEK293T cells to EC50 for reversal of P-gp-mediated multidrug resistance in human NCI-ADR-RES cells; format: toxicity, cell-based; settings: read-out: Ratio IC50/EC50
# MCF7 = assay: Antiproliferative activity against human MCF7 cells assessed as inhibition of cell growth at 50 uM incubated for 48 hrs by MTT assay; format: functional, cell-based
# L02 = assay: Cytotoxicity against human L02 cells assessed as inhibition of cell growth at 50 uM incubated for 48 hrs by MTT assay; format: toxicity, cell-based; settings: l02, 48 h
# HCT-8 = assay: Antiproliferative activity against human HCT-8 cells assessed as inhibition of cell growth at 50 uM incubated for 48 hrs by MTT assay; format: functional, cell-based
# NCI/ADR-RES [24] = assay: Induction of apoptosis in human NCI-ADR-RES cells assessed as necrotic cells at 8 uM incubated for 48 hrs in presence of doxorubicin by Annexin V-FITC and DAPI staining based flow cytometry (Rvb= 0.55 %); format: functional
# NCI/ADR-RES [25] = assay: Induction of apoptosis in human NCI-ADR-RES cells assessed as early apoptotic cells at 8 uM incubated for 48 hrs in presence of doxorubicin by Annexin V-FITC and DAPI staining based flow cytometry (Rvb= 0.89 %); format: functional
# NCI/ADR-RES [26] = assay: Induction of apoptosis in human NCI-ADR-RES cells assessed as necrotic cells at 8 uM incubated for 24 hrs in presence of doxorubicin by Annexin V-FITC and DAPI staining based flow cytometry (Rvb= 0.55 %); format: functional
# Chain of ATP-dependent translocase ABCB1 (P08183 whole entry): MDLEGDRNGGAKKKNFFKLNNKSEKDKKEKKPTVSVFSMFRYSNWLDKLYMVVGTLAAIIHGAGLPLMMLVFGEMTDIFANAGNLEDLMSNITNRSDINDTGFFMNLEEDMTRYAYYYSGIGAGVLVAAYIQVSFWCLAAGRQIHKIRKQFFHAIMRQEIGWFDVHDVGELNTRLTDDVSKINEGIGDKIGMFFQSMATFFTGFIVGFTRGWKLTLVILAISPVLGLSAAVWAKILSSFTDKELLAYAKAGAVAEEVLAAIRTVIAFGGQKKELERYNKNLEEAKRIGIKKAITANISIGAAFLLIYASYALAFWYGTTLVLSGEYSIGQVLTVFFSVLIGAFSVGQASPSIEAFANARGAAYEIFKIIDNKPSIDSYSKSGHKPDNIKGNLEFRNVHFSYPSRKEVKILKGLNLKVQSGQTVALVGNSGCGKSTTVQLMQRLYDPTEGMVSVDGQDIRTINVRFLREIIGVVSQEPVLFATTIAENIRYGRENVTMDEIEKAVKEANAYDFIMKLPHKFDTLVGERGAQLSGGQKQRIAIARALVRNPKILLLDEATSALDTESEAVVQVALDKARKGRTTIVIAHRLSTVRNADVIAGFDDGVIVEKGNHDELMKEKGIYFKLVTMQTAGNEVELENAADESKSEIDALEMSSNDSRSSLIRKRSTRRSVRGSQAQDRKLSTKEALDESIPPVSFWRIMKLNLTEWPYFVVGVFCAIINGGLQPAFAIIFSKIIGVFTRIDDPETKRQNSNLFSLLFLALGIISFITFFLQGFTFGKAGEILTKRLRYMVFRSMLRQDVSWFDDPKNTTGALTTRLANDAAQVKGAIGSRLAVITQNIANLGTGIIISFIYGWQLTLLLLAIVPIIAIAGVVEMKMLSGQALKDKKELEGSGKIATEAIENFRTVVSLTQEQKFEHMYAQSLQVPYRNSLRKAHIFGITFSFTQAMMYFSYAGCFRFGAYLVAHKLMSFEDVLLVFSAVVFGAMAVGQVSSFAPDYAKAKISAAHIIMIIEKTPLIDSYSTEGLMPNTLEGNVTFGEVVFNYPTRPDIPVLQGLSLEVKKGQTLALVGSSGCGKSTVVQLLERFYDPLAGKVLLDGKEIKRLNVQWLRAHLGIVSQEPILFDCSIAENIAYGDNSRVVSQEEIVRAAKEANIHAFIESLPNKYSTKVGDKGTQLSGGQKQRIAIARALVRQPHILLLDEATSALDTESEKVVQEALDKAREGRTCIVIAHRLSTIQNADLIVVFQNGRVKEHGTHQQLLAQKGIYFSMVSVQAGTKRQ
smiles,measurement,setting,value
C=C1[C@H](OC(C)=O)[C@@H](OC(C)=O)[C@@H](OC(C)=O)C(C)(C)/C=C/[C@H](C)[C@H](OC(=O)c2ccccc2)[C@@]2(O)C[C@@](C)(OC(=O)C(C)(C)C)[C@H](OC(C)=O)[C@@H]2[C@H]1OCC(C)C,Activity,NCI/ADR-RES [1],Active
same,Activity,NCI/ADR-RES [2],1.06%
same,inhibition,NCI-ADR-RES [3],Active
same,Activity,NCI/ADR-RES [4],0.73%
same,inhibition,NCI-ADR-RES [5],Active
same,Activity,NCI/ADR-RES [6],inactive
same,IC50 at 48 h,[7],56.3 µM
same,inhibition,NCI-ADR-RES [8],Active
same,Activity,NCI/ADR-RES [9],0.69%
same,Ratio IC50,NCI/ADR-RES [10],116.6
same,Activity,NCI/ADR-RES [11],0.67%
same,Activity,NCI/ADR-RES [12],10.2%
same,inhibition,NCI-ADR-RES [13],Active
same,Activity,NCI/ADR-RES [14],1.56%
same,IC50,NCI/ADR-RES [15],> 100 µM
same,Activity,NCI/ADR-RES [16],0.73%
same,Activity,NCI/ADR-RES [17],inactive
same,viability at 3 µM,NCI/ADR-RES [18],98.4%
same,Activity,NCI/ADR-RES [19],inactive
same,viability at 8 µM,NCI/ADR-RES [20],65%
same,Activity,HEK-293T,Non-Toxic
same,Activity,NCI/ADR-RES [21],8.03%
same,Activity,[22],Non-Toxic
same,EC50,[23],357 nM
same,selectivity ratio,P-gp,309
same,Activity,MCF7,inactive
same,Activity,L02,Non-Toxic
same,Activity,HCT-8,inactive
same,Activity,NCI/ADR-RES [24],10.7%
same,Activity,NCI/ADR-RES [25],16.4%
same,Activity,NCI/ADR-RES [26],0.24%
